Here are results for 5 molecules from ChEMBL document CHEMBL1649393, “Synthesis and antimicrobial activity of thiosemicarbazides, s-triazoles and their Mannich bases bearing 3-chlorophenyl moiety” (2011).

Each structure is given as a SMILES string. In brackets after ≈: the same amount, converted by molar mass.

What all share (assay type): functional
The test system of experiment [1] is Staphylococcus aureus. Put plainly: Antimicrobial activity against Staphylococcus aureus ATCC 25923 after 18 hrs by broth microdilution method. Particulars: ATCC 25923, 18 h.
Experiment [2] relates to Bacillus cereus. Put plainly: Antimicrobial activity against Bacillus cereus ATCC 10876 assessed as >99.9 % reduction in CFU after 18 hrs by broth microdilution method. Particulars: ATCC 10876, 18 h.
Experiment [3] concerns Proteus mirabilis. Put plainly: Antimicrobial activity against Proteus mirabilis ATCC 12453 assessed as >99.9 % reduction in CFU after 18 hrs by broth microdilution method. Particulars: ATCC 12453, 18 h.
For experiment [4], the system named is Klebsiella pneumoniae. Put plainly: Antimicrobial activity against Klebsiella pneumoniae ATCC 13883 assessed as >99.9 % reduction in CFU after 18 hrs by broth microdilution method. The settings on record: ATCC 13883, 18 h, read-out: MBC.
In experiment [5] the test system is Bacillus cereus. The experiment is described as follows: Antimicrobial activity against Bacillus cereus ATCC 10876 after 18 hrs by broth microdilution method. Particulars: ATCC 10876, 18 h.
Experiment [6] concerns Staphylococcus aureus. Put plainly: Antimicrobial activity against Staphylococcus aureus ATCC 6538 assessed as >99.9 % reduction in CFU after 18 hrs by broth microdilution method. Particulars: ATCC 6538, 18 h.
In experiment [7] the test system is Staphylococcus aureus. The experiment is described as follows: Antimicrobial activity against Staphylococcus aureus ATCC 25923 assessed as >99.9 % reduction in CFU after 18 hrs by broth microdilution method. Particulars: ATCC 25923, 18 h.
For experiment [8], the system named is Proteus mirabilis. The experiment is described as follows: Antimicrobial activity against Proteus mirabilis ATCC 12453 after 18 hrs by broth microdilution method. Particulars: ATCC 12453, 18 h.
Experiment [9] deals with Micrococcus luteus. Put plainly: Antimicrobial activity against Micrococcus luteus ATCC 10240 after 18 hrs by broth microdilution method. The settings on record: ATCC 10240, 18 h.
For experiment [10], the system named is Staphylococcus epidermidis. Put plainly: Antimicrobial activity against Staphylococcus epidermidis ATCC 12228 after 18 hrs by broth microdilution method. The settings on record: ATCC 12228, 18 h.
Experiment [11] has as its system Bacillus subtilis. The experiment is described as follows: Antimicrobial activity against Bacillus subtilis ATCC […] after 18 hrs by broth microdilution method.
Experiment [12] deals with Klebsiella pneumoniae. The experiment is described as follows: Antimicrobial activity against Klebsiella pneumoniae ATCC 13883 after 18 hrs by broth microdilution method. Particulars: ATCC 13883, 18 h.
Experiment [13] concerns Staphylococcus epidermidis. Put plainly: Antimicrobial activity against Staphylococcus epidermidis ATCC 12228 assessed as >99.9 % reduction in CFU after 18 hrs by broth microdilution method. Particulars: ATCC 12228, 18 h.
The subject of experiment [14] is Staphylococcus aureus. Put plainly: Antimicrobial activity against Staphylococcus aureus ATCC 6538 after 18 hrs by broth microdilution method. Particulars: ATCC 6538, 18 h.
The subject of experiment [15] is Escherichia coli. The experiment is described as follows: Antimicrobial activity against Escherichia coli ATCC 25922 after 18 hrs by broth microdilution method. The settings on record: ATCC 25922, 18 h.
The subject of experiment [16] is Micrococcus luteus. The experiment is described as follows: Antimicrobial activity against Micrococcus luteus ATCC 10240 assessed as >99.9 % reduction in CFU after 18 hrs by broth microdilution method. The settings on record: ATCC 10240, 18 h.
For experiment [17], the system named is Bacillus subtilis. The experiment is described as follows: Antimicrobial activity against Bacillus subtilis ATCC […] assessed as >99.9 % reduction in CFU after 18 hrs by broth microdilution method.
Experiment [18] has as its system Escherichia coli. Put plainly: Antimicrobial activity against Escherichia coli ATCC 25922 assessed as >99.9 % reduction in CFU after 18 hrs by broth microdilution method. Particulars: ATCC 25922, 18 h.

For the molecule `S=c1n(CN2CCCC2)nc(-c2cccc(Cl)c2)n1-c1ccc(I)cc1`, the MIC with Staphylococcus aureus [1] was 125 µg/mL (≈ 252 µM); in the experiment on Bacillus cereus [5], 125 µg/mL (≈ 252 µM); in the experiment on Proteus mirabilis [8] (read-out: MIC), greater than 1000 µg/mL; in the experiment on Micrococcus luteus [9], 125 µg/mL (≈ 252 µM); in experiment [10] it was 250 µg/mL (≈ 503 µM); against Bacillus subtilis [11] it was 125 µg/mL (≈ 252 µM). Further, the minimum inhibitory concentration (MIC) with Klebsiella pneumoniae [12] is 1000 µg/mL (≈ 2010 µM); against Staphylococcus aureus [14] it was 250 µg/mL (≈ 503 µM); against Escherichia coli [15], greater than 1000 µg/mL. The MBC was greater than 1000 µg/mL in the experiment on Bacillus cereus [2]; greater than 1000 µg/mL in the experiment with Proteus mirabilis [3] (read-out: MBC); greater than 1000 µg/mL in the experiment with Klebsiella pneumoniae [4]; 1000 µg/mL (≈ 2010 µM) in the experiment with Staphylococcus aureus [6]; 1000 µg/mL (≈ 2010 µM) in the experiment on Staphylococcus aureus [7]; greater than 1000 µg/mL in [13]. For the same molecule, the MBC in the experiment on Micrococcus luteus [16] is greater than 1000 µg/mL; with Bacillus subtilis [17], 1000 µg/mL (≈ 2010 µM); in the experiment with Escherichia coli [18], greater than 1000 µg/mL.

For `S=c1n(CN2CCCC2)nc(-c2cccc(Cl)c2)n1-c1ccc(Cl)cc1`, the MIC is 125 µg/mL (≈ 308 µM) in the experiment on Staphylococcus aureus [1]; 125 µg/mL (≈ 308 µM) against Bacillus cereus [5]; greater than 1000 µg/mL in the experiment with Proteus mirabilis [8] (read-out: MIC); 1000 µg/mL (≈ 2470 µM) in the experiment on Micrococcus luteus [9]; 1000 µg/mL (≈ 2470 µM) in experiment [10]; 125 µg/mL (≈ 308 µM) in the experiment with Bacillus subtilis [11]. Besides, the minimum inhibitory concentration (MIC) in the experiment with Klebsiella pneumoniae [12] was 500 µg/mL (≈ 1230 µM); with Staphylococcus aureus [14] it was greater than 1000 µg/mL; in the experiment on Escherichia coli [15] it was 1000 µg/mL (≈ 2470 µM). For the same molecule, the MBC with Bacillus cereus [2] is greater than 1000 µg/mL; in the experiment on Proteus mirabilis [3] (read-out: MBC), greater than 1000 µg/mL; in the experiment with Klebsiella pneumoniae [4], 1000 µg/mL (≈ 2470 µM); in the experiment on Staphylococcus aureus [6], greater than 1000 µg/mL; with Staphylococcus aureus [7], 125 µg/mL (≈ 308 µM); in [13] it was 1000 µg/mL (≈ 2470 µM). Besides, the results for the MBC with Micrococcus luteus [16], with Bacillus subtilis [17] and in the experiment on Escherichia coli [18] were 1000 µg/mL (≈ 2470 µM), greater than 1000 µg/mL and 1000 µg/mL (≈ 2470 µM), respectively.

For `Fc1ccc(-n2c(-c3cccc(Cl)c3)nn(CN3CCCC3)c2=S)cc1`, the MIC against Staphylococcus aureus [1] stood at 125 µg/mL (≈ 321 µM); in the experiment on Bacillus cereus [5], 250 µg/mL (≈ 643 µM); with Proteus mirabilis [8] (read-out: MIC), 500 µg/mL (≈ 1290 µM); in the experiment with Micrococcus luteus [9], 125 µg/mL (≈ 321 µM); in experiment [10], 125 µg/mL (≈ 321 µM); with Bacillus subtilis [11], 125 µg/mL (≈ 321 µM). Moreover, the MIC with Klebsiella pneumoniae [12] was determined as 500 µg/mL (≈ 1290 µM); with Staphylococcus aureus [14], 125 µg/mL (≈ 321 µM); with Escherichia coli [15] it was 500 µg/mL (≈ 1290 µM). In addition, the minimal bactericidal concentration (MBC) in the experiment on Bacillus cereus [2] was greater than 1000 µg/mL; in the experiment on Proteus mirabilis [3] (read-out: MBC), 1000 µg/mL (≈ 2570 µM); in the experiment on Klebsiella pneumoniae [4], 500 µg/mL (≈ 1290 µM); in the experiment on Staphylococcus aureus [6] it was 250 µg/mL (≈ 643 µM); in the experiment with Staphylococcus aureus [7], 250 µg/mL (≈ 643 µM); in [13] it was 500 µg/mL (≈ 1290 µM). The MBC with Micrococcus luteus [16] was 500 µg/mL (≈ 1290 µM); with Bacillus subtilis [17], 250 µg/mL (≈ 643 µM); in the experiment on Escherichia coli [18], 500 µg/mL (≈ 1290 µM).

Regarding `Fc1ccc(F)c(-n2c(-c3cccc(Cl)c3)nn(CN3CCCC3)c2=S)c1`, the MIC in the experiment with Staphylococcus aureus [1] was 125 µg/mL (≈ 307 µM); in the experiment with Bacillus cereus [5], 125 µg/mL (≈ 307 µM); in the experiment with Proteus mirabilis [8] it was 500 µg/mL (≈ 1230 µM); in the experiment with Micrococcus luteus [9] it was 125 µg/mL (≈ 307 µM); in experiment [10] it was 125 µg/mL (≈ 307 µM); in the experiment with Bacillus subtilis [11], 125 µg/mL (≈ 307 µM). The MIC in the experiment on Klebsiella pneumoniae [12] was found to be 250 µg/mL (≈ 614 µM); with Staphylococcus aureus [14], 125 µg/mL (≈ 307 µM); against Escherichia coli [15], 500 µg/mL (≈ 1230 µM). In addition, the MBC in the experiment with Bacillus cereus [2] was greater than 1000 µg/mL; with Proteus mirabilis [3] it was greater than 1000 µg/mL; in the experiment with Klebsiella pneumoniae [4], greater than 1000 µg/mL; in the experiment with Staphylococcus aureus [6] it was 500 µg/mL (≈ 1230 µM); in the experiment with Staphylococcus aureus [7], 500 µg/mL (≈ 1230 µM); in [13], 1000 µg/mL (≈ 2460 µM). Besides, the results for the minimal bactericidal concentration (MBC) in the experiment on Micrococcus luteus [16], in the experiment on Bacillus subtilis [17] and in the experiment with Escherichia coli [18] were 1000 µg/mL (≈ 2460 µM), 1000 µg/mL (≈ 2460 µM) and greater than 1000 µg/mL, respectively.

Take `CC1(C)S[C@@H]2[C@H](NC(=O)[C@H](N)c3ccccc3)C(=O)N2[C@H]1C(=O)O` [AMPICILLIN]: the MIC against Staphylococcus aureus [1] worked out at 2 µg/mL (≈ 5.72 µM); in the experiment on Bacillus cereus [5] it was 62.5 µg/mL (≈ 179 µM); in the experiment with Micrococcus luteus [9], 6 µg/mL (≈ 17.2 µM); in experiment [10] it was 6 µg/mL (≈ 17.2 µM); against Bacillus subtilis [11], 3 µg/mL (≈ 8.59 µM); against Staphylococcus aureus [14], 3 µg/mL (≈ 8.59 µM).
